In patent US20220370453A1 (Storm Therapeutics Ltd, priority 2019, published 2022):

Columns and labels:
BCDIN3D [1] = biological target: T1, BCDIN3D (Homo sapiens, UniProt Q7Z5W3); test: BCDIN3D InCellPulse thermal stability assay in transfected A549 cells; type: cell-based; conditions: heat shock 58° C. 15 min
T1 sequence (Q7Z5W3 1-292): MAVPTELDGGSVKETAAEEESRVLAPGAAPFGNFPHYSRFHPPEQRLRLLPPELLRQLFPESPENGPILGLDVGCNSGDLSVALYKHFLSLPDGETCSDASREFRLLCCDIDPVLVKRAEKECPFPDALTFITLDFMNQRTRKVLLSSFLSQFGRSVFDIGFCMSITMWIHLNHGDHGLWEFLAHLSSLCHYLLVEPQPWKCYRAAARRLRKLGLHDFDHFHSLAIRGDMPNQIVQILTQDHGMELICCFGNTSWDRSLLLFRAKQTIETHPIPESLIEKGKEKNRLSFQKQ
Procedure: BCDIN3D InCellPulse™ Assay
The thermal stability assay was performed with lipofectamine 3000 transiently transfected A549 using the plasmid pICP-ePL-BCDIN3 Da. This plasmid encodes for BCDIN3D N-terminally fused to a Prolabel (ePL), complementing a split β-Galactosidase Enzyme System InCELL Pulse Technology (InCELL Hunter Detection Kit, DiscoverX/Eurofins, cat: 96-0079L). 20 μl A549 cells (1500 cell/well) were added with a multidrop device to compounds to a final DMSO concentration of 0.6% in 384-well polypropylene plate format in IMDM medium and pre-incubated with the compounds for 1 h at 37° C. and 5% CO2. Subsequently, a heat shock was applied to the entire sealed plate in a 58° C. water bath for 15 min. The plates were cooled to RT, spun down and 25 μl/well of EA Detection Solution at 3.3× (InCELL Hunter Detection Kit) was added per well. 21 μl of the mixture was added to a black 384-well measurement plate (Corning, PS, black, Flat Bottom, #3575), mix for 30 minutes on a plate shaker at RT. Finally, the luminescence was measured with a Perkin Elmer EnVision with 0.2 s measurement time in luminescence mode.

BCDIN3D [2] = biological target: T1, BCDIN3D; test: BCDIN3D IC50 RFMS (RapidFire) assay with mini-helix; type: biochemical; conditions: 25 nM enzyme
Procedure: The following General Methods details the assay conditions for the Biological assays.
BCDIN3D IC50 RFMS Assay with Mini-Helix
The enzymatic assay was performed in a 384-well polypropylene plate in assay buffer with 25 mM Tris pH 8.0, 10 mM DTT, 1 mM EDTA, 0.03% BSA in a final assay volume of 20 μL. The enzyme with a final concentration of 25 nM was pre-incubated with the respective compound at 1% DMSO final assay concentration over 10 min at room temperature. The reaction was initiated by addition of 0.2 μM final assay concentration of mini-helix and 6 μM final concentration of SAM as substrates. After a 1 hr incubation at 37° C., the reaction was terminated with 40 μL of stop solution of 7.5% trichloroactetic acid in water containing 112.5 nM D4-SAH and 30 nM ^13C10-SAH used as internal standards. The SAH product concentrations as well as both internal standards were analyzed by a RapidFire High Throughput Mass Spectrometry System (Agilent Technologies, Santa Clara, Calif.) using an AP14000 triple quadrupole mass spectrometer (AB Sciex Framingham, Mass.).

[3] = transiently transfected A549 cells
[4] = mini-helix substrate 0.2 μM, SAM 6 μM
[5] = A549 cells transiently transfected with ePL-BCDIN3D, 1 h pre-incubation
[6] = mini-helix 0.2 μM and SAM 6 μM as substrates, 1 hr at 37° C.

| Structure (SMILES) | IC50 (BCDIN3D [1]; [3]) [nM] | IC50 (BCDIN3D [2]; [4]) [nM] | IC50 (BCDIN3D [1]; [5]) [nM] | IC50 (BCDIN3D [2]; [6]) [nM] |
| --- | --- | --- | --- | --- |
| Cn1ncc2c(Nc3ccc(C#N)cc3)nc(NCC3(N)CC3)nc21 [Compound 2.31, 4-[[6-[(1-aminocyclopropyl)methylamino]-1-methylpyrazolo[3,4-d]pyrimidin-4-yl]amino]benzonitrile] | 8240 | 976 | – | – |
| Cn1ncc2c(Nc3ccc(Cl)cc3)nc(NCC3(N)CC3)nc21 [Compound 2.28, 6-N-[(1-aminocyclopropyl)methyl]-4-N-(4-chlorophenyl)-1-methylpyrazolo[3,4-d]pyrimidine-4,6-diamine] | 1070 | 57.4 | – | – |
| CN[C@@H](CNc1nc(NC(C)(C)C)c2cnn(C)c2n1)c1ccccc1 [Compound 5.29, N4-tert-butyl-1-methyl-N6-[(2R)-2-(methylamino)-2-phenylethyl]-1H-pyrazolo[3,4-d]pyrimidine-4,6-diamine] | 1690 | 2780 | – | – |
| CNc1nc(NCC(N)c2ccc(C#N)cc2)nc2c1cnn2C (centres unmarked) [Compound 5.21, 4-[1-amino-2-[[1-methyl-4-(methylamino)pyrazolo[3,4-d]pyrimidin-6-yl]amino]ethyl]benzonitrile] | 11100 | 3860 | – | – |
| Cn1ncc2c(Nc3cccc(OC(F)F)c3)nc(NCC3(N)CC3)nc21 [Compound 2.21, 6-N-[(1-aminocyclopropyl)methyl]-4-N-[3-(difluoromethoxy)phenyl]-1-methylpyrazolo[3,4-d]pyrimidine-4,6-diamine] | 2470 | 514 | – | – |
| COCC(N)CNc1nc(NCc2ccc(C)c(Cl)c2)c2cnn(C)c2n1 (centres unmarked) [Compound 3.27, 6-N-(2-amino-3-methoxypropyl)-4-N-[(3-chloro-4-methylphenyl)methyl]-1-methylpyrazolo[3,4-d]pyrimidine-4,6-diamine] | 4790 | 4310 | – | – |
| [2H]C([2H])([2H])n1ncc2c(NC(C)(C)C)nc(NCC(N)c3ccccc3)nc21 (centres unmarked) [Compound 4.52, N6-(2-amino-2-phenyl-ethyl)-N4-tert-butyl-1-(trideuteriomethyl)pyrazolo[3,4-d]pyrimidine-4,6-diamine] | 536 | 169 | – | – |
| CCN(C)c1nc(NCC(N)c2ccccc2)nc2c1cnn2C (centres unmarked) [Compound 4.42, 6-N-(2-amino-2-phenylethyl)-4-N-ethyl-4-N,1-dimethylpyrazolo[3,4-d]pyrimidine-4,6-diamine] | 7570 | 2280 | – | – |
| Cn1ncc2c(NCc3cccc(C(F)(F)F)c3)nc(NCCN)nc21 [Compound 1.23, N6-(2-aminoethyl)-1-methyl-N4-{[3-(trifluoromethyl)phenyl]methyl}-1H-pyrazolo[3,4-d]pyrimidine-4,6-diamine] | – | – | 8470 | 7720 |
| COc1ccc(Nc2nc(NCC3(N)CC3)nc3c2cnn3C)cc1Cl [Compound 2.04, 6-N-[(1-aminocyclopropyl)methyl]-4-N-(3-chloro-4-methoxyphenyl)-1-methylpyrazolo[3,4-d]pyrimidine-4,6-diamine] | 1800 | 60.8 | – | – |
| Cn1ncc2c(NC(C)(C)C)nc(NCC(N)C3CCCCC3)nc21 (centres unmarked) [Compound 3.10, N6-(2-amino-2-cyclohexyl-ethyl)-N4-tert-butyl-1-methyl-pyrazolo[3,4-d]pyrimidine-4,6-diamine] | 123 | 228 | – | – |
| CC(C)Nc1nc(NC[C@H](N)c2cccc(Br)c2)nc2c1cnn2C [Compound 5.15, N6-[(2R)-2-amino-2-(3-bromophenyl)ethyl]-N4-isopropyl-1-methyl-pyrazolo[3,4-d]pyrimidine-4,6-diamine] | 47.1 | 28.4 | – | – |
| Cn1ncc2c(NC(C)(C)C)nc(NCC(N)c3ccccc3Br)nc21 (centres unmarked) [Compound 5.20, N6-[2-amino-2-(2-bromophenyl)ethyl]-N4-tert-butyl-1-methyl-pyrazolo[3,4-d]pyrimidine-4,6-diamine] | 1120 | 609 | – | – |
| Cn1ncc2c(NC(C)(C)C)nc(NC[C@H](N)c3ccccc3F)nc21 [Compound 7.12, N6-[(2R)-2-amino-2-(2-fluorophenyl)ethyl]-N4-tert-butyl-1-methyl-pyrazolo[3,4-d]pyrimidine-4,6-diamine] | – | – | 2150 | – |

Second part, the compound after the results:

| IC50 (BCDIN3D [1]; [3]) [nM] | IC50 (BCDIN3D [2]; [4]) [nM] | IC50 (BCDIN3D [1]; [5]) [nM] | IC50 (BCDIN3D [2]; [6]) [nM] | Structure (SMILES) |
| --- | --- | --- | --- | --- |
| 258 | 86.6 | – | – | Cn1ncc2c(Nc3ccc(Cl)c(Cl)c3)nc(NCC(C)(N)c3ccccc3)nc21 (centres unmarked) [Compound 4.13, N6-(2-amino-2-phenyl-propyl)-N4-(3,4-dichlorophenyl)-1-methyl-pyrazolo[3,4-d]pyrimidine-4,6-diamine] |
| – | – | 133 | 38.1 | Cn1ncc2c(Nc3ccc(C(F)(F)F)nc3)nc(NCC(C)(N)c3ccccc3)nc21 (single isomer, unassigned) [Compound 7.15] |
| – | – | 918 | 975 | Cn1ncc2c(Nc3ccc(Oc4ccccc4)cc3)nc(NCCN)nc21 [Compound 1.03, N6-(2-aminoethyl)-1-methyl-N4-(4-phenoxyphenyl)-1H-pyrazolo[3,4-d]pyrimidine-4,6-diamine] |
| 186 | 52.1 | – | – | Cn1ncc2c(Nc3ccc(OC(F)(F)F)cc3)nc(NCC(C)(N)c3ccccc3)nc21 (centres unmarked) [Compound 4.12, N6-(2-amino-2-phenyl-propyl)-1-methyl-N4-[4-(trifluoromethoxy)phenyl]pyrazolo[3,4-d]pyrimidine-4,6-diamine] |
| 608 | 783 | – | – | COC[C@@H](C)Nc1nc(NC[C@H](N)c2ccccc2)nc2c1cnn2C [Compound 4.117, N6-[(2R)-2-amino-2-phenyl-ethyl]-N4-[(1R)-2-methoxy-1-methyl-ethyl]-1-methyl-pyrazolo[3,4-d]pyrimidine-4,6-diamine] |
| 29.9 | 34.1 | – | – | Cn1ncc2c(Nc3ccc(C(F)(F)F)cc3)nc(NC[C@H](N)c3ccccc3)nc21 [Compound 4.22, 6-N-[(2R)-2-amino-2-phenylethyl]-1-methyl-4-N-[4-(trifluoromethyl)phenyl]pyrazolo[3,4-d]pyrimidine-4,6-diamine] |
| 267 | 172 | – | – | Cn1ncc2c(NC3CC(F)(F)C3)nc(NC[C@H](N)c3ccccc3)nc21 [Compound 4.85, N6-[(2R)-2-amino-2-phenyl-ethyl]-N4-(3,3-difluorocyclobutyl)-1-methyl-pyrazolo[3,4-d]pyrimidine-4,6-diamine] |
| 46.3 | 40.8 | – | – | Cn1ncc2c(Nc3ccc(OC(F)F)cc3)nc(NC[C@H](N)c3ccccc3)nc21 [Compound 4.16, N6-[(2R)-2-amino-2-phenyl-ethyl]-N4-[4-(difluoromethoxy)phenyl]-1-methyl-pyrazolo[3,4-d]pyrimidine-4,6-diamine] |
| 3330 | 945 | – | – | CCNc1nc(NCC(N)c2ccccc2)nc2c1cnn2C (centres unmarked) [Compound 4.41, 6-N-(2-amino-2-phenylethyl)-4-N-ethyl-1-methylpyrazolo[3,4-d]pyrimidine-4,6-diamine] |
| 218 | 42.8 | – | – | [2H]C([2H])([2H])n1ncc2c(Nc3ccc(C(F)(F)F)cc3)nc(NCC(C)(N)c3ccccc3)nc21 (centres unmarked) [Compound 4.21, N6-(2-amino-2-phenyl-propyl)-1-(trideuteriomethyl)-N4-[4-(trifluoromethyl)phenyl]pyrazolo[3,4-d]pyrimidine-4,6-diamine] |
| 3240 | 1140 | – | – | Cn1ncc2c(NC3CCC(F)(F)CC3)nc(NCC(N)c3ccccc3)nc21 (centres unmarked) [Compound 4.68, 6-N-(2-amino-2-phenylethyl)-4-N-(4,4-difluorocyclohexyl)-1-methylpyrazolo[3,4-d]pyrimidine-4,6-diamine] |
| 141 | 143 | – | – | CN(C)c1ccc(Nc2nc(NC[C@H](N)c3ccccc3)nc3c2cnn3C)cc1 [Compound 4.35, N6-[(2R)-2-amino-2-phenyl-ethyl]-N4-[4-(dimethylamino)phenyl]-1-methyl-pyrazolo[3,4-d]pyrimidine-4,6-diamine] |
| 166 | 62.5 | – | – | Cc1ccc(CNc2nc(NCC(N)c3ccccc3)nc3c2cnn3C)cc1Cl (centres unmarked) [Compound 4.03, 6-N-(2-amino-2-phenylethyl)-4-N-[(3-chloro-4-methylphenyl)methyl]-1-methylpyrazolo[3,4-d]pyrimidine-4,6-diamine] |
